Measured values reported in patent publication US20250101052A1, “COMPOUND FOR EGFR KINASE INHIBITOR, COMPOSITION, AND USE THEREOF” (INNOVATION INSTITUTE FOR ARTIFICIAL INTELLIGENCE IN …, priority 2021, published 2025).

Biological target: EGFR^L858R/T790M/C797S kinase (Homo sapiens (Human), UniProt P00533, C797S/L858R/T790M)
Test: EGFR^L858R/T790M/C797S kinase inhibitory activity experiment
Type: biochemical
Details: in vitro
Description: EGFRL^858R/T790M/C797S kinase inhibitory activity experiment: The compounds of the present invention have excellent in-vitro inhibitory activity against EGFR^L858R/T790M/C797S kinase
• Centrifuge (manufacturer: Eppendorf, model: 5430) • Microplate reader (manufacturer: Perkin Elmer, model: Caliper EZ ReaderII) • Echo 550 (manufacturer: Labcyte, model: Echo 550) • Experimental Method • Compound preparation: • A 10 mM storage solution was prepared.
(1) 1×Kinase buffer was prepared.
(2) Preparation of concentration gradient of compound: The tested compound has a test concentration starting from 1 μM, diluted 10 times, with 10 concentrations, and subjected to single-well or multi-well detection. The compound was diluted to a 100% DMSO solution with a final concentration of 100 times in a 384 source plate. […] of the compound at a final concentration of 100 times was transferred to the target plate 384-well-plate using the pipette Echo 550.
(3) A kinase solution with a final concentration of 2.5 times was prepared using 1× Kinase buffer.
(4) 10 μL of the kinase solution with the final concentration of 2.5 times was added to a compound well and a positive control well, respectively; 10 μL of 1×Kinase buffer was added to a negative control well.
(5) Centrifugation was conducted at 1000 rpm for 30 seconds, and the reaction plate was shaken and mixed well, and incubated at a room temperature for 10 minutes.
(6) A mixed solution of ATP with a final concentration of 5/3 times and Kinase substrate 22 was prepared using 1×Kinase buffer.
(7) A mixed solution of 15 μL of ATP with a final concentration of 5/3 times and a substrate was added for initial reaction.
(8) The 384-well-plate was centrifuged at 1000 rpm for 30 seconds, shaken and mixed well, and incubated at a room temperature for 60 minutes.
(9) 30 μL of a termination detection solution was added to stop the kinase reaction. Centrifugation was conducted at 1000 rpm for 30 seconds. Shaking and mixing well were conducted.
(10) The conversion rate was read using Caliper EZ Reader.
where Conversion %_sample is the conversion rate reading of the sample; Conversion %_min: the average value of negative control wells, representing the conversion rate reading of wells without enzyme activity; Conversion %_max: the average value of positive control wells, representing the conversion rate reading of wells without compound inhibition; % Inhibition represents the inhibition rate.
Fitting of Dose-Response Curve
Using the log value of concentration as the X-axis and the percentage inhibition rate as the Y-axis, the dose-response curve was fitted using the log(inhibitor) vs. response —Variable slope of the analysis software GraphPad Prism 5 to obtain the IC50 value of each compound on enzyme activity.

Chain of EGFR^L858R/T790M/C797S kinase (P00533 25-1210 T790M/C797S/L858R): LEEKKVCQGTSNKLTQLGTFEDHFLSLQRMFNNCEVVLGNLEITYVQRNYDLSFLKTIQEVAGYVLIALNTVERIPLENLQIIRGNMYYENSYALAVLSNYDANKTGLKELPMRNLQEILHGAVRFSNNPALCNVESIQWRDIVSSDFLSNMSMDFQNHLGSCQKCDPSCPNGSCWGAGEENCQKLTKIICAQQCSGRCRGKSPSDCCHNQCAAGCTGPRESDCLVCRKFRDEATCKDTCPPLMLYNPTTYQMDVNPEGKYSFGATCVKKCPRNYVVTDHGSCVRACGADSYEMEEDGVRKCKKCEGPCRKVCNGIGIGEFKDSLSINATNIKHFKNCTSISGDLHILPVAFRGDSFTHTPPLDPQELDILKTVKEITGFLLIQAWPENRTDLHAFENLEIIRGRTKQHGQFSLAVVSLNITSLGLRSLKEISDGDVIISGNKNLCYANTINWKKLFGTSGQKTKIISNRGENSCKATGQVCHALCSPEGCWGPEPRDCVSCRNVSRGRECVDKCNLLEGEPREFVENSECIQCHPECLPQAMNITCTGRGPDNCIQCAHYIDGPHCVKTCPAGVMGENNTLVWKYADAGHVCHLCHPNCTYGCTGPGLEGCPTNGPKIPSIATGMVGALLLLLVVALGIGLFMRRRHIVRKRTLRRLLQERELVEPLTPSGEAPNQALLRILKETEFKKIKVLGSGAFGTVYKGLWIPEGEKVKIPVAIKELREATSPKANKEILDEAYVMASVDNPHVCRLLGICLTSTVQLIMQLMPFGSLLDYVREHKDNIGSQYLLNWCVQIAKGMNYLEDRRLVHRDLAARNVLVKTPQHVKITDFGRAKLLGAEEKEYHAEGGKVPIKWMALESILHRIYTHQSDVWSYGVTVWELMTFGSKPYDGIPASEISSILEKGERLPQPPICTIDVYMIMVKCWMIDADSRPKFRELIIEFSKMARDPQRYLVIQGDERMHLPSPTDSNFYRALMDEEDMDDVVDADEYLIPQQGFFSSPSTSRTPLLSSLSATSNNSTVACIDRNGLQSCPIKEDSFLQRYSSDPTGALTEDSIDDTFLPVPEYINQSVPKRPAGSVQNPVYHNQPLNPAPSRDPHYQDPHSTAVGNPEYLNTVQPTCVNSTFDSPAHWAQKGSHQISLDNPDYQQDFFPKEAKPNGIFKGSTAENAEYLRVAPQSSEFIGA

Row | IC50 | SMILES
1 | 5 nM | COc1cc(N2CCC(N3CCN(C)CC3)CC2)c(C)cc1Nc1ncc(Cl)c(Nc2ccc(C)c(C)c2P(C)(C)=O)n1 [BD-2, (6-((5-Chloro-2-((2-methoxy-5-methyl-4-(4-(4-methylpiperazin-1-yl)piperidin-1-yl)phenyl)amino)pyrimidin-4-yl)amino)-2,3-dimethylphenyl)dimethylphosphine oxide]
2 | 27 nM | COc1cc(N2CCC3(CC2)CC(N(C)C)C3)ccc1Nc1ncc(Cl)c(Nc2cc(C)c(C)cc2P(C)(C)=O)n1 [Compound 1, (6-((5-Chloro-2-((4-(2-(dimethylamino)-7-azaspiro[3.5]nonan-7-yl)-2-methoxyphenyl)amino)pyrimidin-4-yl)amino)-3,4-dimethylphenyl)dimethylphosphine oxide]
3 | 89 nM | COc1cc(N2CC3(CCC(N(C)C)CC3)C2)ccc1Nc1ncc(Cl)c(Nc2ccc(C)c(C)c2P(C)(C)=O)n1 [Compound 2, (6-((5-Chloro-2-((4-(7-(dimethylamino)-2-azaspiro[3.5]nonane-2-yl)-2-methoxyphenyl)amino)pyrimidin-4-yl)amino)-2,3-dimethylphenyl)dimethylphosphine oxide]
4 | 21 nM | COc1cc(N2CC3(CCC(N(C)C)CC3)C2)c(C)cc1Nc1ncc(Cl)c(Nc2ccc(C)c(C)c2P(C)(C)=O)n1 [Compound 3, (6-((5-Chloro-2-((4-(7-(dimethylamino)-2-azaspiro[3.5]nonan-2-yl)-2-methoxy-5-methylphenyl)amino)pyrimidin-4-yl)amino)-2,3-dimethylphenyl)dimethylphosphine oxide]
5 | 16 nM | COc1cc(N2CCC3(CCN(C)CC3)CC2)ccc1Nc1ncc(Cl)c(Nc2ccc(C)c(C)c2P(C)(C)=O)n1 [Compound 4, (6-((5-Chloro-2-((2-methoxy-4-(9-methyl-3,9-diazaspiro[5.5]undecan-3-yl)phenyl)amino)pyrimidin-4-yl)amino)-2,3-dimethylphenyl)dimethylphosphine oxide]
6 | 7 nM | COc1cc(N2CCC3(CC2)CC(N(C)C)C3)c(C)cc1Nc1ncc(Cl)c(Nc2cc(C)c(C)cc2P(C)(C)=O)n1 [Compound 9, (2-((5-Chloro-2-((4-(2-(dimethylamino)-7-azaspiro[3.5]nonan-7-yl)-2-methoxy-5-methylphenyl)amino)pyrimidin-4-yl)amino)-4,5-dimethylphenyl)dimethylphosphine oxide]
7 | 13 nM | CCc1cc(Nc2ncc(Cl)c(Nc3cc(C)c(C)cc3P(C)(C)=O)n2)c(OC)cc1N1CC2(CCC(N(C)C)CC2)C1 [Compound 10, (2-((5-Chloro-2-((4-(7-(dimethylamino)-2-azaspiro[3.5]nonan-2-yl)-5-ethyl-2-methoxypheny 1)amino)pyrimidin-4-yl)amino)-4,5-dimethylphenyl)dimethylphosphine oxide]
8 | 5 nM | CCc1cc(Nc2ncc(Cl)c(Nc3cc(C)c(C)cc3P(C)(C)=O)n2)c(OC)cc1N1CCC(N2CCN(C)CC2)CC1 [Compound 11, (2-((5-chloro-2-((5-ethyl-2-methoxy-4-(4-(4-methylpiperazin-1-yl)piperidin-1-yl)phenyl)amino)pyrimidin-4-yl)amino)-4,5-dimethylphenyl)dimethylphosphine oxide]
9 | 8.3 nM | CCc1cc(Nc2ncc(Cl)c(Nc3cc(C)c(C)cc3P(C)(C)=O)n2)c(OC)cc1N1CCC(N2CCOCC2)CC1 [Compound 14, (2-((5-chloro-2-((5-ethyl-2-methoxy-4-(4-morpholinopiperidin-1-yl)phenyl)amino)pyrimidin-4-yl)amino)-4,5-dimethylphenyl)dimethylphosphine oxide]
10 | 3.8 nM | CCc1cc(Nc2ncc(Cl)c(Nc3cc(C)c(C)cc3P(C)(C)=O)n2)c(OC)cc1N1CCC(N2CC(N(C)C)C2)CC1 [Compound 15, (2-((5-chloro-2-((4-(4-(3-(dimethylamino)azetidin-1-yl)piperidine-1-yl)-5-ethyl-2-methoxyphenyl)amino)pyrimidin-4-yl)amino)-4,5-dimethylphenyl)dimethylphosphine oxide]
11 | 36 nM | CCc1cc(Nc2ncc(Cl)c(Nc3cc(C)cc(C)c3P(C)(C)=O)n2)c(OC)cc1N1CCC2(CC1)CC(N(C)C)C2 [Compound 18, (2-((5-Chloro-2-((4-(2-(dimethylamino)-7-azaspiro[3.5]non-7-yl)-5-ethyl-2-methoxyphenyl)amino)pyrimidin-4-yl)amino)-4,6-dimethylphenyl)dimethylphosphine oxide]
12 | 29 nM | CCc1cc(Nc2ncc(Cl)c(Nc3cc(C)c(C)cc3P(C)(C)=O)n2)c(OC)cc1N1CCC2(CC1)CN(C)C2 [Compound 20, (2-((5-Chloro-2-((5-ethyl-2-methoxy-4-(2-methyl-2,7-diazaspiro[3.5]non-7-yl)phenyl)amino)pyrimidin-4-yl)amino)-4,5-dimethylphenyl)dimethylphosphine oxide]
13 | 10 nM | COc1cc(N2CCC3(CC2)CC(N(C)C)C3)c(F)cc1Nc1ncc(Cl)c(Nc2ccc(C)c(C)c2P(C)(C)=O)n1 [Compound 22]
14 | 0.74 nM | CCc1cc(Nc2ncc(Cl)c(Nc3ccc(C)c(C)c3P(C)(C)=O)n2)c(OC)cc1N1CC2(CCN(CC3CC3)CC2)C1 [Compound 26]
15 | 0.81 nM | CCc1cc(Nc2ncc(Cl)c(Nc3ccc(C)c(C)c3P(C)(C)=O)n2)c(OC)cc1N1CC2(CCN(CC)CC2)C1 [Compound 27]
16 | 18.1 nM | CCc1cc(Nc2ncc(Cl)c(Nc3ccc(C)c(C)c3P(C)(C)=O)n2)c(OC)cc1N1CC2(CCC(CC#N)CC2)C1 [Compound 29, 2-(2-(4-((5-chloro-4-((2-(dimethylphosphoryl)-3,4-dimethylphenyl)amino)pyrimidin-2-yl)amino)-2-ethyl-5-methoxyphenyl)-2-azaspiro[3.5]nonane-7-yl)acetonitrile]
17 | 6.78 nM | CCc1cc(Nc2ncc(Cl)c(Nc3ccc(C)c(C)c3P(C)(C)=O)n2)c(OC)cc1N1CCC2(CC1)CN(C(C)=O)C2 [Compound 30, 1-(7-(4-((5-chloro-4-((2-(dimethylphosphoryl)-3,4-dimethylphenyl)amino)pyrimidin-2-yl)amino)-2-ethyl-5-methoxyphenyl)-2,7-diazaspiro[3.5]nonan-2-yl)ethan-1-one]
18 | 4.19 nM | CCc1cc(Nc2ncc(Cl)c(Nc3ccc(C)c(C)c3P(C)(C)=O)n2)c(OC)cc1N1CCC2(CC1)CN(COC)C2 [Compound 31]
19 | 0.73 nM | CCN1CCC2(CC1)CN(c1cc(OC)c(Nc3ncc(Cl)c(Nc4ccc(C)c(C)c4P(C)(C)=O)n3)cc1C)C2 [Compound 33]
20 | 0.84 nM | COc1cc(N2CC3(CCN(C)CC3)C2)c(Cl)cc1Nc1ncc(Cl)c(Nc2ccc(C)c(C)c2P(C)(C)=O)n1 [Compound 34]
21 | 0.68 nM | CCN1CCC2(CC1)CN(c1cc(OC)c(Nc3ncc(Cl)c(Nc4ccc(C)c(C)c4P(C)(C)=O)n3)cc1Cl)C2 [Compound 35]
22 | 0.96 nM | CCc1cc(Nc2ncc(Cl)c(Nc3cc(Cl)c(Cl)cc3P(C)(C)=O)n2)c(OC)cc1N1CC2(CCN(C)CC2)C1 [Compound 36]
23 | 0.49 nM | CCc1cc(Nc2ncc(Cl)c(Nc3cc(Cl)c(Cl)cc3P(C)(C)=O)n2)c(OC)cc1N1CC2(CCN(C3CC3)CC2)C1 [Compound 37]
24 | 12.1 nM | CCc1cc(Nc2ncc(Cl)c(Nc3cc(Cl)c(Cl)cc3P(C)(C)=O)n2)c(OC)cc1N1CC2(CCC(CC#N)CC2)C1 [Compound 39, 2-(2-(4-((5-chloro-4-((4,5-dichloro-2-(dimethylphosphoryl)phenyl)amino)pyrimidin-2-yl)amino)-2-ethyl-5-methoxyphenyl)-2-azaspiro[3.5]nonan-7-yl)acetonitrile]
25 | 0.85 nM | COc1cc(N2CC3(CCN(C)CC3)C2)c(Cl)cc1Nc1ncc(Cl)c(Nc2cc(C)c(C)cc2P(C)(C)=O)n1 [Compound 40]
26 | 0.89 nM | COc1cc(N2CC3(CCN(C4CC4)CC3)C2)c(Cl)cc1Nc1ncc(Cl)c(Nc2cc(C)c(C)cc2P(C)(C)=O)n1 [Compound 41]

Row | SMILES | IC50
27 | CCc1cc(Nc2ncc(Cl)c(Nc3ccc(C)c(C)c3P(C)(C)=O)n2)c(OC)cc1N1CC2(CCN(CC(F)F)CC2)C1 [Compound 28] | 0.99 nM
28 | CCc1cc(Nc2ncc(Cl)c(Nc3cc(Cl)c(Cl)cc3P(C)(C)=O)n2)c(OC)cc1N1CC2(CCN(CC(F)F)CC2)C1 [Compound 38] | 0.59 nM
29 | COc1cc(N2CC3(CCN(CC(F)F)CC3)C2)c(Cl)cc1Nc1ncc(Cl)c(Nc2cc(C)c(C)cc2P(C)(C)=O)n1 [Compound 42] | 0.76 nM
